pIC50: −log10 of the molar value. Where two headings read alike, the source gives them in different places.
Experiments:
[1] = test system: PIKFYVE TDP-43 yeast strain; assay: Propidium iodide viability assay in PIKFYVE TDP-43 yeast strain; format: cell-based; settings: for PIKfyve TDP-43 (active/inactive): PIKFYVE TDP-43 yeast model; for pIC50: Saccharomyces cerevisiae, reduction in PI-positive cells, 24 hours, up to 15 μM
From the text: (§1) Generation of TDP-43 yeast model expressing human PIKfyve. Human PIKFYVE (“entry clone”) was cloned into pAG416GPDccdB (“destination vector”) according to standard Gateway cloning protocols (Invitrogen, Life Technologies). The resulting pAG416GPD-PIKFYVE plasmids were amplified in E. coli and plasmid identity confirmed by restriction digest and Sanger sequencing. Lithium acetate/polyethylene glycol-based transformation was used to introduce the above PIKFYVE plasmid into a BY4741 yeast strain auxotrophic for the ura3 gene and deleted for two transcription factors that regulate the xenobiotic efflux pumps, a major efflux pump, and FAB1, the yeast ortholog of PIKFYVE (MATa, snq2::KILeu2; pdr3::Klura3;pdrl::NATMX; fab1::G418^R, his3;leu2;ura3;met15;LYS2+) (FIG. 2). Transformed yeast were plated on solid agar plates with complete synthetic media lacking uracil (CSM-ura) and containing 2% glucose. Individual colonies harboring the control or PIKFYVE TDP-43 plasmids were recovered. A plasmid containing wild-type TDP-43 under the transcriptional control of the GAL1 promoter and containing the hygromycin-resistance gene as a selectable marker was transformed into the fab1::G418^R pAG416GPD-PIKFYVE yeast strain (FIG. 1). Transformed yeast were plated on CSM-ura containing 2% glucose and 200 μg/mL […] after overnight recovery in media lacking antibiotic. Multiple independent isolates were further evaluated for cytotoxicity and TDP-43 expression levels.
(§2) Viability Assay. A control yeast strain with the wild-type yeast FAB1 gene and TDP-43 (“FAB1 TDP-43”, carries empty pAG416 plasmid), and the “PIKFYVE TDP-43” yeast strain, were assessed for toxicity using a propidium iodide viability assay. Both yeast strains were transferred from solid CSM-ura/2% glucose agar plates into 3 mL of liquid CSM-ura/2% glucose media for 6-8 hours at 30° C. with aeration. Yeast cultures were then diluted to an optical density at 600 nm wavelength (OD600) of 0.005 in 3 mL of CSM-ura/2% raffinose and grown overnight at 30° C. with aeration to an OD600 of 0.3-0.8. Log-phase overnight cultures were diluted to OD600 of 0.005 in CSM-ura containing either 2% raffinose or galactose and 150 μL dispensed into each well of a flat bottom 96-well plates. Compounds formulated in 100% dimethyl sulfoxide (DMSO) were serially diluted in DMSO and 1.5 μL diluted compound transferred to the 96-well plates using a multichannel pipet. Wells containing DMSO alone were also evaluated as controls for compound effects. Tested concentrations ranged from 15 μM to 0.11 μM. Cultures were immediately mixed to ensure compound distribution and covered plates incubated at 30° C. for 24 hours in a stationary, humified incubator.
(§3) Upon the completion of incubation, cultures were assayed for viability using propidium iodide (PI) to stain for dead/dying cells. A working solution of PI was made where, for each plate, 1 μL of 10 mM PI was added to 10 mL of CSM-ura (raffinose or galactose). The final PI solution (50 μL/well) was dispensed into each well of a new round bottom 96-well plate. The overnight 96-well assay plate was then mixed with a multichannel pipet and 50 μL transferred to the PI-containing plate. This plate was then incubated for 30 minutes at 30° C. in the dark. A benchtop flow cytometer (Miltenyi MACSquant) was then used to assess red fluorescence (B2 channel), forward scatter, and side scatter (with following settings: gentle mix, high flow rate, fast measurement, 10,000 events). Intensity histograms were then gated for “PI-positive” or “PI-negative” using the raffinose and galactose cultures treated with DMSO as controls. The DMSO controls for raffinose or galactose-containing cultures were used to determine the window of increased cell death and this difference set to 100. All compounds were similarly gated and then compared to this maximal window to establish the percent reduction in PI-positive cells.

FAB1 TDP-43 yeast strain = assay: Propidium iodide viability assay in FAB1 TDP-43 control yeast strain; format: cell-based; settings: for FAB1 TDP-43 (active/inactive): FAB1 TDP-43 yeast model
From the text: as §1, §2, §3

[2] = molecular target: full-length human PIKFYVE (GST-PIKFYVE) (Homo sapiens (Human), UniProt Q9Y2I7, L932S/Q1183K/Q995L/S1033A/S696N/T998S); assay: PIKfyve biochemical assay (ADP-Glo Kinase assay, Carna Biosciences)
From the text: PIKfyve Biochemical Assay. The biochemical PIKFyve inhibition assays were run by Carna Biosciences according to proprietary methodology based on the Promega ADP-Glo™ Kinase assay. A full-length human PIKFYVE [1-2098(end) amino acids and S696N, L932S, Q995L, T998S, S1033A and Q1183K of the protein having the sequence set forth in NCBI Reference Sequence No. NP_055855.2] was expressed as N-terminal GST-fusion protein (265 kDa) using baculovirus expression system. GST-PIKFYVE was purified by using glutathione sepharose chromatography and used in an ADP-Glo™ Kinase assay (Promega). Reactions were set up by adding the test compound solution, substrate solution, ATP solution and kinase solution, each at 4× final concentrations. Reactions were prepared with assay buffer (50 mM MOPS, 1 mM DTT, pH7.2), mixed, and incubated in black 384 well polystyrene plates for 1 hour at room temperature. ADP-Glo™ reagent was then added for 40 minutes, followed by kinase detection reagent for an additional 40 minutes. The kinase activity was evaluated by detecting relative light units on a luminescence plate reader. Samples were run in duplicate from 10 μM to 3 nM. […] IC50 values were calculated from concentration vs % inhibition curves by fitting to a four-parameter logistic curve.
The biochemical PIKFyve inhibition assays were run by Carna Biosciences according to proprietary methodology based on the Promega ADP-Glo™ Kinase assay. A full-length human PIKFYVE [1-2098(end) amino acids and S696N, L932S, Q995L, T998S, S1033A and Q1183K of accession number NP_055855.2] was expressed as N-terminal GST-fusion protein (265 kDa) using baculovirus expression system. GST-PIKFYVE was purified by using glutathione sepharose chromatography and used in an ADP-Glo™ Kinase assay (Promega).
Reactions were set up by adding the test compound solution, substrate solution, ATP solution and kinase solution, each at 4× final concentrations. Reactions were prepared with assay buffer (50 mM MOPS, 1 mM DTT, pH7.2), mixed, and incubated in black 384 well polystyrene plates for 1 hour at room temperature. ADP-Glo™ reagent was then added for 40 minutes, followed by kinase detection reagent for an additional 40 minutes. The kinase activity was evaluated by detecting relative light units on a luminescence plate reader. Samples were run in duplicate from 10 uM to 3 nM. […] IC50 values were calculated from concentration vs % inhibition curves by fitting to a four-parameter logistic curve.

[3] = molecular target: PIKfyve (PIKFYVE-NanoLuc fusion in HEK293 cells) (Homo sapiens (Human), UniProt Q9Y2I7); assay: NanoBRET TE Intracellular Kinase Assay, K-8 (Promega) cell-based assay; settings: 2 hours, read-out: hPIKfyve BRET IC50
Protocol: NanoBRET™ TE Intracellular Kinase Assay, K-8 (Promega) Cell-Based Assay. Intracellular inhibition of PIKfyve was assayed using Promega's NanoBRET™ TE Intracellular Kinase Assay, K-8 according to manufacturer's instructions. A dilution series of test compounds was added for 2 hours to HEK293 cells transfected for a minimum of 20 hours with PIKFYVE-NanoLuc® Fusion Vector (Promega) containing a full-length PIKfyve according to manufacturer's specifications in a 96-well plate. Kinase activity was detected by addition of a NanoBRET™ tracer reagent, which was a proprietary PIKfyve inhibitor appended to a fluorescent probe (BRET, bioluminescence resonance energy transfer). Test compounds were tested at concentrations of 10, 3, 1, 0.3, 0.1, 0.03, 0.01, 0.003 μM. BRET signals were measured by a GloMax®Discover Multimode Microplate Reader (Promega) using 0.3 sec/well integration time, 450BP donor filter and 600LP acceptor filters. Active test compounds that bound PIKfyve and displaced the tracer reduced BRET signal. IC50 values were then calculated by fitting the data to the normalized BRET ratio.

[4] = ADP-Glo, full-length human PIKFYVE, read-out: hPIKfyve IC50

Chain of full-length human PIKFYVE (GST-PIKFYVE) (Q9Y2I7 whole entry S696N/L932S/Q995L/T998S/S1033A/Q1183K, the tested form may be a part): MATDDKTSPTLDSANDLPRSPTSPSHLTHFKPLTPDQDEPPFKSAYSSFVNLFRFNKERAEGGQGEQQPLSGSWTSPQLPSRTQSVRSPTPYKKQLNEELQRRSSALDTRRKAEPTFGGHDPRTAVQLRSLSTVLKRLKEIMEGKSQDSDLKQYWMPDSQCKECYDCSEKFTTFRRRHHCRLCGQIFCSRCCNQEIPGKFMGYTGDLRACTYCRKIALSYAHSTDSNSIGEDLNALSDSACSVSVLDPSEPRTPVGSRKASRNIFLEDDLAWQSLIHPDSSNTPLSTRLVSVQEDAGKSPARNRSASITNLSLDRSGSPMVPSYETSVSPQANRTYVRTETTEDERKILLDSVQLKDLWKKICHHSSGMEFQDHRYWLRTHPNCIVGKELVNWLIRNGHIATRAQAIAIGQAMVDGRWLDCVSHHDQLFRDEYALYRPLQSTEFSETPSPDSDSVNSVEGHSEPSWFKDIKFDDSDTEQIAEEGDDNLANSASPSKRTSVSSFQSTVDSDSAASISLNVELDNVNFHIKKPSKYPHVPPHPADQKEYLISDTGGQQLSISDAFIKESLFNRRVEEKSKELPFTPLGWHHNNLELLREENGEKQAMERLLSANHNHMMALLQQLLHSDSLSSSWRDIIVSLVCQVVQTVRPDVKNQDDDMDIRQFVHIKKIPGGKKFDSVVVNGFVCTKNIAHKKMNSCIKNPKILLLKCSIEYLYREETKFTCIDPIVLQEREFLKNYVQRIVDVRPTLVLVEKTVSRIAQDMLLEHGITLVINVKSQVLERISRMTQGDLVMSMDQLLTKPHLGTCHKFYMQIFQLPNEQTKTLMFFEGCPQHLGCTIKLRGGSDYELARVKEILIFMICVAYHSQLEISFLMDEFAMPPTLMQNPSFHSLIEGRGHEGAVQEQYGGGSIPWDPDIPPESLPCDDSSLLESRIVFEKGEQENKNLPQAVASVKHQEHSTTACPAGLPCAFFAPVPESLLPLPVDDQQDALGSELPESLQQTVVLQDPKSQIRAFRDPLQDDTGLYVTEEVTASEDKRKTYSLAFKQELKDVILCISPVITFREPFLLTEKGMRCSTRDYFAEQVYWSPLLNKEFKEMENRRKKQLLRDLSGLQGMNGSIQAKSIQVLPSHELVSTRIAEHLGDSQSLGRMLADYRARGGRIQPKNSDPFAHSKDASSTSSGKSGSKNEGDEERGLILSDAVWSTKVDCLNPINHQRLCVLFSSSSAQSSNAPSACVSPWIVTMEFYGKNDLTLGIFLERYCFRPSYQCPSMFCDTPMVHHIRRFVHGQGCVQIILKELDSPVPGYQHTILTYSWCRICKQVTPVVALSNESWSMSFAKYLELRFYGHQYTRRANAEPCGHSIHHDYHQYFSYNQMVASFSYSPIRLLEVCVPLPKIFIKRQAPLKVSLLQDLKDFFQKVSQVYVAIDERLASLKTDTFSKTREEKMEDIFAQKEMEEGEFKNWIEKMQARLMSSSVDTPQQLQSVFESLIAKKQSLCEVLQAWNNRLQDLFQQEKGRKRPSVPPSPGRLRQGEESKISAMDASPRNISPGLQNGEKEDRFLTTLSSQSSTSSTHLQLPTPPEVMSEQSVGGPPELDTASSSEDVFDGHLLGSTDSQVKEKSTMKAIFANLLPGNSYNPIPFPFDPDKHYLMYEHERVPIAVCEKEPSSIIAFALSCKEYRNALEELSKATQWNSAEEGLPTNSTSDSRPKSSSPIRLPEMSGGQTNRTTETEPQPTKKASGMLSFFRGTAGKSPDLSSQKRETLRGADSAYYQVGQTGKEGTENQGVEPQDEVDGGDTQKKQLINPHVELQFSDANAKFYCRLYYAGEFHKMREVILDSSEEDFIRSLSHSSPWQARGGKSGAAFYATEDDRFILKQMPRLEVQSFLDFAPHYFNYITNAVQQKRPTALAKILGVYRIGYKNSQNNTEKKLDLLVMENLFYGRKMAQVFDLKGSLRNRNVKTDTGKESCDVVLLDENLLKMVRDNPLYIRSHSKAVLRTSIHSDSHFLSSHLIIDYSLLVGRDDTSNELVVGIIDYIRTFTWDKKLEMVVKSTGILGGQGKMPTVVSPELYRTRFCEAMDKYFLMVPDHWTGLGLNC
Chain of PIKfyve (PIKFYVE-NanoLuc fusion in HEK293 cells) (Q9Y2I7 whole entry, the tested form may be a part): as the sequence (Q9Y2I7 whole entry S696N/L932S/Q995L/T998S/S1033A/Q1183K, the tested form may be a part) above, with N696S, S932L, L995Q, S998T, A1033S, K1183Q counted along it

pIC50 [2, 4] | pIC50 [3] | Structure (SMILES) | pIC50 [1] | also measured
 |  | Cc1cccc(/C=N/Nc2cc(N3CC4CC3CO4)n3nc(-c4ccncc4)cc3n2)c1 (centres unmarked) |  | PIKfyve TDP-43 (active/inactive) [1]: Active; FAB1 TDP-43 (active/inactive) (FAB1 TDP-43 yeast strain): Inactive
 |  | Cn1c(-c2ccncc2)nc2c(N3CCOCC3)ncnc21 |  | PIKfyve TDP-43 (active/inactive) [1]: Inactive; FAB1 TDP-43 (active/inactive) (FAB1 TDP-43 yeast strain): Inactive
 |  | CN(C)c1cc(N2CCOCC2)n2nc(-c3ccncc3)cc2n1 |  | PIKfyve TDP-43 (active/inactive) [1]: Inactive; FAB1 TDP-43 (active/inactive) (FAB1 TDP-43 yeast strain): Inactive
 |  | N#Cc1cc(N2CCOCC2)n2nc(-c3ccncc3)cc2n1 |  | PIKfyve TDP-43 (active/inactive) [1]: Inactive; FAB1 TDP-43 (active/inactive) (FAB1 TDP-43 yeast strain): Inactive
 |  | Cc1cccc(/C=N/Nc2cc(N3CCOCC3)nc(OCCc3ccc(CN)cc3)n2)c1 | 5.95 | 
 |  | c1ccc(-c2cccc(-c3cc(N4CCOCC4)n4nc(-c5ccncc5)cc4n3)n2)cc1 | 6.64 | 
 |  | Oc1cc(-c2ccccc2)nn1-c1cc(N2CCOCC2)n2nc(-c3ccncc3)nc2n1 | 6.16 | 
 |  | Oc1cc(C2CCOCC2)nn1-c1cc(N2CCOCC2)n2nc(-c3ccncc3)cc2n1 | 5.04 | 
 |  | c1ccc(-c2ccnc(-c3cc(N4CCOCC4)nc(OCc4ccncc4)n3)n2)cc1 | 5.84 | 
 |  | c1ccc(N2CCc3c(OCc4cccnc4)nc(N4CCOCC4)nc32)cc1 | 5.57 | 
 |  | Fc1cccc(-c2ccnn2-c2nc(N3CCOCC3)c3ncccc3n2)c1 | 5.24 | pIC50 ([2]; values plotted in FIG. 7, read-out: PIKFYVE Biochemistry (IC50)): < 5.00
 |  | Cc1cccc(/C=N/Nc2cc(N3CCOCC3)n3nc(-c4ccncc4)cc3n2)c1 [APY0201, reference compound] |  | propidium iodide-positive dead cells in PIKFYVE TDP-43 ([1]; 0.23 μM, FIG. 6): reduced the population of propidium iodide-positive dead cells; viable cells in FAB1 TDP-43 (FAB1 TDP-43 yeast strain; range of compound concentrations (only 0.23 μM is shown), FIG. 5): no increase in viable cells
7.00 to 8.00 | 6.00 to 7.00 | c1ccc(-c2ccn(-c3nc(N4CCOCC4)c4ncccc4n3)n2)cc1 [compound 8, 4-(2-(3-phenyl-1H-pyrazol-1-yl)pyrido[3,2-d]pyrimidin-4-yl)morpholine] |  | 
7.00 to 8.00 | 6.00 to 7.00 | c1ccc(-c2ccn(-c3nc(N4CCOCC4)c4ncc(C5CCCCO5)cc4n3)n2)cc1 (centres unmarked) [compound 18, 4-(2-(3-Phenyl-1H-pyrazol-1-yl)-7-(tetrahydro-2H-pyran-2-yl)pyrido[3,2-d]pyrimidin-4-yl)morpholine] |  | 
7.00 to 8.00 | 6.00 to 7.00 | c1ccc(-c2ccn(-c3nc(N4CCOCC4)c4ncc(C5CCOCC5)cc4n3)n2)cc1 [compound 20, 4-[2-(3-phenylpyrazol-1-yl)-7-tetrahydropyran-4-yl-pyrido[3,2-d]pyrimidin-4-yl]morpholine] |  | 
7.00 to 8.00 | 7.00 to 8.00 | C1=C(c2cnc3c(N4CCOCC4)nc(-n4ccc(-c5ccccc5)n4)nc3c2)CCOC1 [compound 21, 4-(7-(3,6-dihydro-2H-pyran-4-yl)-2-(3-phenyl-1H-pyrazol-1-yl)pyrido[3,2-d]pyrimidin-4-yl)morpholine] |  | 
7.00 to 8.00 | 6.00 to 7.00 | c1ccc(-c2ccn(-c3nc(N4CCOCC4)c4ncc(C5CCCO5)cc4n3)n2)cc1 (centres unmarked) [compound 22, 4-(2-(3-phenyl-1H-pyrazol-1-yl)-7-(tetrahydrofuran-2-yl)pyrido[3,2-d]pyrimidin-4-yl)morpholine] |  | 
7.00 to 8.00 | 7.00 to 8.00 | Cc1cccc(/C=N/Nc2nc(N3CCOCC3)c3ncccc3n2)c1 [compound 24, (E)-4-(2-(2-(3-methylbenzylidene)hydrazinyl)pyrido[3,2-d]pyrimidin-4-yl)morpholine] |  | 
7.00 to 8.00 | 6.00 to 7.00 | Cc1cccc(-c2cc(O)n(-c3nc(N4CCOCC4)c4ncccc4n3)n2)c1 [compound 26, 1-(4-morpholinopyrido[3,2-d]pyrimidin-2-yl)-3-m-tolyl-1H-pyrazol-5-ol] |  | 
> 8.00 | 6.00 to 7.00 | c1ccc(-c2nccc(-c3nc(N4CCOCC4)c4ncccc4n3)n2)cc1 [compound 39, 4-(2-(2-phenylpyrimidin-4-yl)pyrido[3,2-d]pyrimidin-4-yl)morpholine] |  | 
6.00 to 7.00 | 6.00 to 7.00 | c1ccc(Nc2nc(N3CCOCC3)c3ncc(Cc4cccnc4)cc3n2)cc1 [compound 79] |  | 
7.00 to 8.00 | 7.00 to 8.00 | Cc1cccc(/C=N/Nc2nc(N3CCOCC3)c3ncc(Cc4cccnc4)cc3n2)c1 [compound 80] |  | 
7.00 to 8.00 | 6.00 to 7.00 | Cc1cccc(-c2cc(O)n(-c3nc(N4CCOCC4)c4ncc(Cc5cccnc5)cc4n3)n2)c1 [compound 81] |  | 
 |  | Cc1cccc(/C=N/Nc2cc(N3CCOCC3)n3nc(-c4ccncc4)cc3n2)c1 [drawing 292] |  | PIKfyve TDP-43 (active/inactive) [1]: Active; FAB1 TDP-43 (active/inactive) (FAB1 TDP-43 yeast strain): Inactive
 |  | Cc1cccc(/C=N/Nc2nc(N3CCOCC3)c3nc(-c4ccncc4)n(C)c3n2)c1 [drawing 308] | 5.33 | 
 |  | Cc1cccc(/C=N/Nc2nc(N3CCOCC3)c3ncccc3n2)c1 [drawing 311] | 5.09 | 

— patent publication US20240208964A1, “PYRIDOPYRIMIDINES AND METHODS OF THEIR USE” (PYRIDOPYRIMIDINES AND METHODS OF THEIR USE, priority 2020, published 2024)
